Publication PMC7265341, “Quantifying CDK inhibitor selectivity in live cells” (Nature Communications, 2020)
Read-outs that look alike come from different tables or passages of the source.

Key:
[1] = molecular target: CDK1/Cyclin E1 (Homo sapiens, UniProt P06493); test: NanoBRET live-cell target engagement, CDK1-NanoLuc/Cyclin E1 in HEK-293; format: binding; settings: CDK1/E1
[2] = molecular target: CDK2/Cyclin E1 (Homo sapiens, UniProt P24941); test: NanoBRET live-cell target engagement, CDK2-NanoLuc/Cyclin E1 in HEK-293; format: binding; settings: CDK2/E1
[3] = molecular target: CDK4/Cyclin D1 (Homo sapiens, UniProt P11802); test: NanoBRET live-cell target engagement, NanoLuc-CDK4/Cyclin D1 in HEK-293; format: binding; settings: CDK4/D1, 10µM
[4] = molecular target: CDK5/CDK5R1 (Homo sapiens, UniProt Q00535); test: NanoBRET live-cell target engagement, CDK5-NanoLuc/CDK5R1 in HEK-293; format: binding; settings: CDK5/CDK5R1, 10µM
[5] = molecular target: CDK6/Cyclin D1 (Homo sapiens, UniProt Q00534); test: NanoBRET live-cell target engagement, NanoLuc-CDK6/Cyclin D1 in HEK-293; format: binding; settings: CDK6/D1
[6] = molecular target: CDK8/Cyclin C (Homo sapiens, UniProt P49336); test: NanoBRET live-cell target engagement, NanoLuc-CDK8/Cyclin C in HEK-293; format: binding
[7] = molecular target: CDK9/Cyclin K (Homo sapiens, UniProt P50750); test: NanoBRET live-cell target engagement, NanoLuc-CDK9/Cyclin K in HEK-293; format: binding; settings: CDK9/K, 10µM
[8] = molecular target: T1, CDK11A/Cyclin L2 (Homo sapiens, UniProt Q9UQ88); test: NanoBRET live-cell target engagement, CDK11A-NanoLuc/Cyclin L2 in HEK-293; format: binding; settings: CDK11a/L2, 10µM
T1 sequence (Q9UQ88 1-783): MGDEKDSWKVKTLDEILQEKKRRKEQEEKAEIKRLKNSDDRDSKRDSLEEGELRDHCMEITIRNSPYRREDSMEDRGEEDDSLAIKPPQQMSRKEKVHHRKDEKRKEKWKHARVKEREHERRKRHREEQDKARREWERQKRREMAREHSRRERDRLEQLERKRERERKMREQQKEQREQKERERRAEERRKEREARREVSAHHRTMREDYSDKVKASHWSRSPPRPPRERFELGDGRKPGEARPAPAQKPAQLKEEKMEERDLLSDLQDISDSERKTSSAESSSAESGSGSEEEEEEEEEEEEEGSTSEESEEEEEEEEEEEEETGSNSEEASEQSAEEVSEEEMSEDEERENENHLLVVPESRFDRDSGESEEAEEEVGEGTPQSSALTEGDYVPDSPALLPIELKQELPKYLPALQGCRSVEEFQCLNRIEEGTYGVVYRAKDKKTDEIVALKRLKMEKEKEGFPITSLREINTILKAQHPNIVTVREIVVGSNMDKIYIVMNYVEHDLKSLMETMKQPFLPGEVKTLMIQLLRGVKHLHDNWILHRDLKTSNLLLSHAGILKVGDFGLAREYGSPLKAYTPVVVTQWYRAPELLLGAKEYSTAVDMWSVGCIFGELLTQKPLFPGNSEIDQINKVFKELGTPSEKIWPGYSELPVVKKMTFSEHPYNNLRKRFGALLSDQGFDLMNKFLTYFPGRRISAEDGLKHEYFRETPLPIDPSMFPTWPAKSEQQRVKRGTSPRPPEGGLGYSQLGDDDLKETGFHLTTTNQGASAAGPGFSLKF

[9] = molecular target: CDK11B/Cyclin L2 (Homo sapiens, UniProt P21127); test: NanoBRET live-cell target engagement, CDK11B-NanoLuc/Cyclin L2 in HEK-293; format: binding; settings: CDK11b/L2, 10µM
[10] = molecular target: CDK12/Cyclin K (Homo sapiens, UniProt Q9NYV4); test: NanoBRET live-cell target engagement, CDK12-NanoLuc/Cyclin K in HEK-293; format: binding; settings: CDK12/K, 10µM
[11] = molecular target: CDK13/Cyclin K (Homo sapiens, UniProt Q14004); test: NanoBRET live-cell target engagement, CDK13-NanoLuc/Cyclin K in HEK-293; format: binding; settings: CDK13/K, 10µM
Sequence of CDK13/Cyclin K (O75909 whole entry): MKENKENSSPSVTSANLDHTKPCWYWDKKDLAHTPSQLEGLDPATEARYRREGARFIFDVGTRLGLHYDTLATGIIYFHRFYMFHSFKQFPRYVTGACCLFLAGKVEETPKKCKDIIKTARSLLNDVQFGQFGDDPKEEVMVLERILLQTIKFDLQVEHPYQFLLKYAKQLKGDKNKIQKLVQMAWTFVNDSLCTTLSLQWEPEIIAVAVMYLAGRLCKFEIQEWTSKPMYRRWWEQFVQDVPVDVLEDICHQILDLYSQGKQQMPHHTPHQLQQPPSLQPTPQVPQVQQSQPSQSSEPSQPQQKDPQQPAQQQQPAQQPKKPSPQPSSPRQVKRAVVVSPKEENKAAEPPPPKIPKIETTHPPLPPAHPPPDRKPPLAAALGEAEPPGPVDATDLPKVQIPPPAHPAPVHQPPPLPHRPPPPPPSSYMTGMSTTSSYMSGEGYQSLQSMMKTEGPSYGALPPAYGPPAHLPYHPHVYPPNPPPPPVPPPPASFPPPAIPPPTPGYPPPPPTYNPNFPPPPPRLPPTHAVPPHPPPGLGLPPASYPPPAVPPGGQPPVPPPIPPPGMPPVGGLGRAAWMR
Sequence of CDK13/Cyclin K (Q14004 other isoform, or with tags, fused parts or gaps): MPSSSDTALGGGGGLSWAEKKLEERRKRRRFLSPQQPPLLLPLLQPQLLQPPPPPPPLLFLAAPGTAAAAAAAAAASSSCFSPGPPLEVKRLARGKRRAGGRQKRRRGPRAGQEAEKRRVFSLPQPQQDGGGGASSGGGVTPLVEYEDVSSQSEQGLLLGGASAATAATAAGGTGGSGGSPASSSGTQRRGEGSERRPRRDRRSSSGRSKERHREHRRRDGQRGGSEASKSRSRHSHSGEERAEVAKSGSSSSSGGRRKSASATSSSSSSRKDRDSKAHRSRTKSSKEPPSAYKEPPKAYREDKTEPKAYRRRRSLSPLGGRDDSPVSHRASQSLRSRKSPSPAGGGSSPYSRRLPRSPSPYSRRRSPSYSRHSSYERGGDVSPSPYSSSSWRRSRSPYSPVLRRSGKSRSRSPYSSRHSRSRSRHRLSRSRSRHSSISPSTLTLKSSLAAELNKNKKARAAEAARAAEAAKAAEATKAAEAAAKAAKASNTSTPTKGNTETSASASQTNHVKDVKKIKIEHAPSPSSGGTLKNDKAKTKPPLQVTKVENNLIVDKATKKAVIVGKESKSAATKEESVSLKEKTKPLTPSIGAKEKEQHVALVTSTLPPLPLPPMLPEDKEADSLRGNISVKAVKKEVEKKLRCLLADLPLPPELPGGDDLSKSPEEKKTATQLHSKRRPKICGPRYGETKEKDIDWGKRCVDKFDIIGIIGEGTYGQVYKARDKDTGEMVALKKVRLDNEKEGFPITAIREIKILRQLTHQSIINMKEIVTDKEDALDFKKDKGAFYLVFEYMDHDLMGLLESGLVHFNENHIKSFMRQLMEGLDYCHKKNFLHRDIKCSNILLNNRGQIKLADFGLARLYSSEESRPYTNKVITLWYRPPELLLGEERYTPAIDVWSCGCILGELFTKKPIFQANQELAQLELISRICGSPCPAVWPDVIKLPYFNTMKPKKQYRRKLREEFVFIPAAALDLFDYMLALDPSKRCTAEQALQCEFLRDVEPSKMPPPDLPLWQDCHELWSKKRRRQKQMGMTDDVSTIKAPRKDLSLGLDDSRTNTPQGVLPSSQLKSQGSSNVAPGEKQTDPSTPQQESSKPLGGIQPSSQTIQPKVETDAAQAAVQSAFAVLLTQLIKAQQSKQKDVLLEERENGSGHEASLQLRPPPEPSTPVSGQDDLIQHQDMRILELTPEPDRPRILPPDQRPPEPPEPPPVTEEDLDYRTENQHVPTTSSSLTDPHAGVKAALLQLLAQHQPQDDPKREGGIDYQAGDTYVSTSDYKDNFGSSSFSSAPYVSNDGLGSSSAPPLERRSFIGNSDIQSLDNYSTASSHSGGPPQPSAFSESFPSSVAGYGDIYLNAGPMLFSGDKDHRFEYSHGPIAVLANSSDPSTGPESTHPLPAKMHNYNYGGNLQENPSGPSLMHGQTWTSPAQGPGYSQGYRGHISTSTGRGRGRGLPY

[12] = molecular target: CDK14/Cyclin Y (Homo sapiens, UniProt O94921); test: NanoBRET live-cell target engagement, CDK14-NanoLuc/Cyclin Y in HEK-293; format: binding; settings: CDK14/Y
Sequence of CDK14/Cyclin Y (O94921 whole entry): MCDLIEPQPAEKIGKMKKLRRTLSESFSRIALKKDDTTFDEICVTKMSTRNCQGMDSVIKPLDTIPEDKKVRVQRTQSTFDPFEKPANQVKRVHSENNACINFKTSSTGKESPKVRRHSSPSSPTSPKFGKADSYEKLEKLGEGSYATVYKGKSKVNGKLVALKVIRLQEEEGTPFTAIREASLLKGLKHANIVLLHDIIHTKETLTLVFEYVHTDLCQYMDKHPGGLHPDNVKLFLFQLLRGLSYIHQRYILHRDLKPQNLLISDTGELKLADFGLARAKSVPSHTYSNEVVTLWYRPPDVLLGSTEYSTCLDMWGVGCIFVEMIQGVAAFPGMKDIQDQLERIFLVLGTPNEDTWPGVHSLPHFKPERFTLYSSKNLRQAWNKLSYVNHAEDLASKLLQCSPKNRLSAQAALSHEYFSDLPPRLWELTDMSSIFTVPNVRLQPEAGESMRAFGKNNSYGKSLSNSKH
Sequence of CDK14/Cyclin Y (Q8ND76 whole entry partner): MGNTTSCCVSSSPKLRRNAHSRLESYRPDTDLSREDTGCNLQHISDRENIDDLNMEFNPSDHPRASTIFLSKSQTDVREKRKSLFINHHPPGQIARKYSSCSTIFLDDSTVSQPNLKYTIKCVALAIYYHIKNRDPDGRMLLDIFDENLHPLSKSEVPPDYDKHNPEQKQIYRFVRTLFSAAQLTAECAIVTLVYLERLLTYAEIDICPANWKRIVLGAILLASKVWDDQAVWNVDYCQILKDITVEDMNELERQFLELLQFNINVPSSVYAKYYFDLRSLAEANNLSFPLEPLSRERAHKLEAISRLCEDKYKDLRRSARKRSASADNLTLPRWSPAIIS

[13] = molecular target: CDK15/Cyclin Y (Homo sapiens, UniProt Q96Q40); test: NanoBRET live-cell target engagement, NanoLuc-CDK15/Cyclin Y in HEK-293; format: binding; settings: CDK15/Y, 10µM
[14] = molecular target: CDK16/Cyclin Y (Homo sapiens, UniProt Q00536); test: NanoBRET live-cell target engagement, CDK16-NanoLuc/Cyclin Y in HEK-293; format: binding; settings: CDK16/Y
Sequence of CDK16/Cyclin Y (Q00536 whole entry): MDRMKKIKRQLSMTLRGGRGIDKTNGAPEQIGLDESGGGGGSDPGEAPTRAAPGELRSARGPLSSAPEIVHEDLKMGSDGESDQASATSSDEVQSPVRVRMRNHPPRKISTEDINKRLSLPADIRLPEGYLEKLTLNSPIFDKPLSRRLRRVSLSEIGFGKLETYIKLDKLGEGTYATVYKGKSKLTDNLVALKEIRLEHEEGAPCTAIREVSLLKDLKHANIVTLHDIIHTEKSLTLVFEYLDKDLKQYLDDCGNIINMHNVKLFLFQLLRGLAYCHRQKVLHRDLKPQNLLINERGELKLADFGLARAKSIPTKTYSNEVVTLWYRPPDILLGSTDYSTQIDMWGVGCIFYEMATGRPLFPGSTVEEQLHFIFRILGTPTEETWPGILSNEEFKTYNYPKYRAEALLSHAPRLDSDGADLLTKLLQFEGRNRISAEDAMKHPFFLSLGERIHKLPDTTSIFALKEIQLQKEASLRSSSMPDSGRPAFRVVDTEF
Sequence of CDK16/Cyclin Y (Q8ND76 whole entry partner): as the sequence (Q8ND76 whole entry partner) above

[15] = molecular target: CDK17/Cyclin Y (Homo sapiens, UniProt Q00537); test: NanoBRET live-cell target engagement, CDK17-NanoLuc/Cyclin Y in HEK-293; format: binding; settings: CDK17/Y, 10µM
Sequence of CDK17/Cyclin Y (Q00537 whole entry): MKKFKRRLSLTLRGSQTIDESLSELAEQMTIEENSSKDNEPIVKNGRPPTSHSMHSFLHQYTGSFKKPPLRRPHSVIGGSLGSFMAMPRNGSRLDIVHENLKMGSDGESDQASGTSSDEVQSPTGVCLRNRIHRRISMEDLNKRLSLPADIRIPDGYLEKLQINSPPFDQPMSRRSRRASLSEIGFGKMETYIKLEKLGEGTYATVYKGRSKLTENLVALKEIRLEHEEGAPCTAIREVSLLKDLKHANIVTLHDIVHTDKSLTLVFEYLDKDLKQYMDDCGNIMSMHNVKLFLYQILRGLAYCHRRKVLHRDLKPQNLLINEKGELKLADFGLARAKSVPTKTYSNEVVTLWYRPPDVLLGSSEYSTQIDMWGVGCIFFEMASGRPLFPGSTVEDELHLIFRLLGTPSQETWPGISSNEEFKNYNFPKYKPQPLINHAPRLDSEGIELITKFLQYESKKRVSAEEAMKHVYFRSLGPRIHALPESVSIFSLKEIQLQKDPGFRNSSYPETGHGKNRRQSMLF
Sequence of CDK17/Cyclin Y (Q8ND76 whole entry partner): as the sequence (Q8ND76 whole entry partner) above

[16] = molecular target: CDK18/Cyclin Y (Homo sapiens, UniProt Q07002); test: NanoBRET live-cell target engagement, CDK18-NanoLuc/Cyclin Y in HEK-293; format: binding; settings: CDK18/Y, 10µM
[17] = molecular target: CDK20/Cyclin H (Homo sapiens, UniProt Q8IZL9); test: NanoBRET live-cell target engagement, NanoLuc-CDK20/Cyclin H in HEK-293; format: binding; settings: CDK20/H, 10µM
[18] = molecular target: CDK19/Cyclin C (Homo sapiens, UniProt Q9BWU1); test: NanoBRET live-cell target engagement, NanoLuc-CDK19/Cyclin C in HEK-293
[19] = molecular target: CDK10/Cyclin L2 (Homo sapiens, UniProt Q15131); test: NanoBRET live-cell target engagement, CDK10-NanoLuc/Cyclin L2 in HEK-293; settings: 10µM
Sequence of CDK10/Cyclin L2 (Q15131 whole entry): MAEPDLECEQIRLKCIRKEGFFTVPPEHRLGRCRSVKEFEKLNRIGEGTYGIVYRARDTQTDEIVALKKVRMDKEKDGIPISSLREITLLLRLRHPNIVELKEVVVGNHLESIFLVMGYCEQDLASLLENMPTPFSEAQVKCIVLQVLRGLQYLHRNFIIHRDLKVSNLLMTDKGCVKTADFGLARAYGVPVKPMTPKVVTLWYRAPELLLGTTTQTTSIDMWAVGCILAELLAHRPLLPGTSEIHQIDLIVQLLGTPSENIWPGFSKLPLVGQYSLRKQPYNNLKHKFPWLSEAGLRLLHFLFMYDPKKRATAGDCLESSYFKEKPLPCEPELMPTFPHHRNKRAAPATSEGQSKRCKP

[20] = average of replicates, read-out: Inhibition at 10µM (%) Average
[21] = read-out: Inhibition at 10µM (%) Replicate 1
[22] = read-out: Inhibition at 10µM (%) Replicate 2
[23] = n=3 average ± SEM, n=2 average to 2 significant figures, read-out: IC50 (nM) Average*
[24] = read-out: IC50 (nM) Replicate 1
[25] = read-out: IC50 (nM) Replicate 2
[26] = read-out: IC50 (nM) Replicate 3

Sequence of CDK1/Cyclin E1 (P06493 whole entry): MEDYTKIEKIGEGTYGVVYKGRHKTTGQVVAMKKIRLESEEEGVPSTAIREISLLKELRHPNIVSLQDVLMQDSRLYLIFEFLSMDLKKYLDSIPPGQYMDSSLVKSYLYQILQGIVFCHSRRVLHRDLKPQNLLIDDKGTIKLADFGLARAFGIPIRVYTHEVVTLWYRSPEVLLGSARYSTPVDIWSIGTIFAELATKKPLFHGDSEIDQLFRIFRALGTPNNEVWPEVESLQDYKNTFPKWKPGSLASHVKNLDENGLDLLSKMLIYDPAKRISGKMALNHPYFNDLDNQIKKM
Sequence of CDK1/Cyclin E1 (P24864 whole entry partner): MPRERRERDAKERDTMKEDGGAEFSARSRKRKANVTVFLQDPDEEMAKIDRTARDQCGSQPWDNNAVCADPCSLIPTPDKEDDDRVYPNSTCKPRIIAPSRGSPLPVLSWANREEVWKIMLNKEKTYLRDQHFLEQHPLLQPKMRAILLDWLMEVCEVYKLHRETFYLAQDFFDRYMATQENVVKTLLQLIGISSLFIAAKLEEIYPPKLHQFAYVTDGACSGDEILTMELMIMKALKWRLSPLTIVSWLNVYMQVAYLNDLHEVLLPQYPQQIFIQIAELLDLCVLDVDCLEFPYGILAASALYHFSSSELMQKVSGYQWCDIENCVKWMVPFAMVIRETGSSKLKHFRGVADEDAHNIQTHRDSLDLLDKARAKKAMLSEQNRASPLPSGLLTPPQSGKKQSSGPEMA

CCCCOc1c(C(=O)c2c(F)cc(C)cc2F)c[nH]c2nncc1-2 [BMS-265246] gave an inhibition at 10 µM [1, 20] of 44.4%, an inhibition at 10 µM [1, 21] of 65.6% and an inhibition at 10 µM [1, 22] of 23.1%. For the same molecule, the IC50 [1, 23] was 50 ± 20 nM, the IC50 [1, 24] was 95 nM and the IC50 [1, 25] was 39 nM. The IC50 [1, 26] was 11 nM, the inhibition at 10 µM [2, 20] was 80.1% and the inhibition at 10 µM [2, 21] was 77.4%. For the same molecule, the inhibition at 10 µM [2, 22] was 82.8%, the IC50 [2, 23] was 22 ± 8 nM and the IC50 [2, 24] was 29 nM. It also gave an IC50 [2, 25] of 31 nM, an IC50 [2, 26] of 6.6 nM and an inhibition at 10 µM [3, 20] of 49.1%. For the same molecule, the inhibition at 10 µM [3, 21] was 49%, the inhibition at 10 µM [3, 22] was 49.3% and the inhibition at 10 µM [4, 20] was 35.1%. For the same molecule, the inhibition at 10 µM [4, 21] was 36.3%, the inhibition at 10 µM [4, 22] was 33.9% and the inhibition at 10 µM [5, 20] was 68%. It also gave an inhibition at 10 µM [5, 21] of 64.1%, an inhibition at 10 µM [5, 22] of 71.8% and an IC50 [5, 23] of 100 ± 30 nM. It also gave an IC50 [5, 24] of 63 nM, an IC50 [5, 25] of 70 nM and an IC50 [5, 26] of 152 nM. For the same molecule, the inhibition at 10 µM ([6]; CDK8/C, average of replicates, read-out: Inhibition at 10µM (%) Average) was 95.1%, the inhibition at 10 µM ([6]; CDK8/C, read-out: Inhibition at 10µM (%) Replicate 1) was 97.6% and the inhibition at 10 µM ([6]; CDK8/C, read-out: Inhibition at 10µM (%) Replicate 2) was 92.5%. The IC50 ([6]; CDK8/C, read-out: IC50 (nM) Replicate 1) was 1.2 nM, the IC50 ([6]; CDK8/C, read-out: IC50 (nM) Replicate 2) was 0.45 nM and the IC50 ([6]; CDK8/C, read-out: IC50 (nM) Replicate 3) was 0.5 nM. It also gave an IC50 ([6]; live HEK-293, 2 h, mean ± S.E.M. (n=3) or mean (n=2), read-out: IC50 for CDK/cyclin complexes, CDK8/C) of 0.7 nM, a Kd ([6]; live HEK-293, read-out: Kd-apparent, CDK8 live-cell occupancy) of under 2 nM and an inhibition at 10 µM [7, 20] of 26.1%. The inhibition at 10 µM [7, 21] was 31%, the inhibition at 10 µM [7, 22] was 21.3% and the inhibition at 10 µM [8, 20] was 8.4%. It also gave an inhibition at 10 µM [8, 21] of 3.6%, an inhibition at 10 µM [8, 22] of 13.2% and an inhibition at 10 µM [9, 20] of 11.8%. The inhibition at 10 µM [9, 21] was 9.8%, the inhibition at 10 µM [9, 22] was 13.8% and the inhibition at 10 µM [10, 20] was 5.2%. For the same molecule, the inhibition at 10 µM [10, 21] was 12.3%, the inhibition at 10 µM [10, 22] was -1.9% and the inhibition at 10 µM [11, 20] was 12.6%. For the same molecule, the inhibition at 10 µM [11, 21] was 10.5%, the inhibition at 10 µM [11, 22] was 14.7% and the inhibition at 10 µM [12, 20] was 43.5%. The inhibition at 10 µM [12, 21] was 68.1%, the inhibition at 10 µM [12, 22] was 18.8% and the IC50 [12, 23] was 200 ± 200 nM. It also gave an IC50 [12, 24] of 10 nM, an IC50 [12, 25] of 100 nM and an IC50 [12, 26] of 570 nM. The inhibition at 10 µM [13, 20] was 35.1%, the inhibition at 10 µM [13, 21] was 51.3% and the inhibition at 10 µM [13, 22] was 19%. The inhibition at 10 µM [14, 21] was 70.8%, the inhibition at 10 µM [14, 22] was 76.5% and the IC50 [14, 23] was 50 ± 20 nM. It also gave an IC50 [14, 24] of 5.7 nM, an IC50 [14, 25] of 63 nM and an IC50 [14, 26] of 79 nM. It also gave an inhibition at 10 µM [15, 20] of 75.2%, an inhibition at 10 µM [15, 21] of 71.1% and an inhibition at 10 µM [15, 22] of 79.2%. For the same molecule, the inhibition at 10 µM [16, 20] was 89.2%, the inhibition at 10 µM [16, 21] was 86.5% and the inhibition at 10 µM [16, 22] was 92%. For the same molecule, the inhibition at 10 µM [17, 21] was 14.5%, the inhibition at 10 µM [17, 22] was -14.1% and the Kd [18] was under 2 nM. The IC50 ([18]; IC50 (nM) Average*, CDK19/Y, n=3 average ± SEM, n=2 average to 2 significant figures) was 1.47 ± 0.09 nM, the IC50 ([18]; IC50 (nM) Replicate 2, CDK19/C) was 1.6 nM and the IC50 ([18]; IC50 (nM) Replicate 3, CDK19/C) was 1.3 nM. It also gave an IC50 ([18]; IC50 for CDK/cyclin complexes, CDK19/C, live HEK-293, 2 h, mean ± S.E.M. (n=3) or mean (n=2)) of 1.5 nM, an inhibition at 10 µM ([18]; read-out: Inhibition at 10µM (%) Average, CDK19/C, average of replicates) of 95.1% and an inhibition at 10 µM ([18]; read-out: Inhibition at 10µM (%) Replicate 1, CDK19/C) of 98.1%. The inhibition at 10 µM ([18]; read-out: Inhibition at 10µM (%) Replicate 2, CDK19/C) was 92.2%, the inhibition at 10 µM ([19]; read-out: Inhibition at 10µM (%) Average, CDK10/L2, average of replicates) was 11.1% and the inhibition at 10 µM ([19]; read-out: Inhibition at 10µM (%) Replicate 1, CDK10/L2) was 5.3%. It also gave an inhibition at 10 µM ([19]; read-out: Inhibition at 10µM (%) Replicate 2, CDK10/L2) of 17%.
